Our source for the EC50 and AC50 values is ChEMBL document CHEMBL1201862, “PubChem BioAssay data set” (2004).

The structures appear in SMILES notation. Active and inactive are the calls of the source. Cut-off read from the data, not from the text of the source, for most assays here: actives have a measured EC50 and inactives only a lower limit.

The first test has as its system H4. The experiment in a line: Luminescence Cell-Based Dose Response HTS to Identify Activators of 5'UTR Stem-Loop Driven Prion Protein mRNA Translation in H4 Neuroglioblastoma Cells. [Related pubchem assays: 1829 (Project Summary), 1814 (Primary HTS)]. The test is classed as functional. To be noted: Homo sapiens.
On to `O=C(Nc1nnc(C2CC2)s1)C1Cc2ccccc2CN1S(=O)(=O)c1ccccc1F` (configuration not stated), for which the EC50 (usually the concentration that produces a half-maximal response) is > 120 µM (not active).

Regarding `CCOc1ccc2c(c1)s/c(=N/C(=O)C1CC1)n2C`, the EC50 was 63.4 µM (active).

System in another test: not listed separately
Put plainly: Luminescence Cell-Based Dose Response HTS to Identify Inhibitors of 5'UTR Stem-Loop Driven Prion Protein mRNA Translation in H4 Neuroglioblastoma Cells. [Related pubchem assays: 1827 (Project Summary), 1813 (Primary HTS)]. The test is classed as functional.
Conditions: not given
Take `O=C(/C=C\Nc1ccc(S(=O)(=O)Nc2ncccn2)cc1)c1cccc2ccccc12`: the EC50 is > 120 µM (not active). For `Cc1ccc(C(=O)N2C(=O)C(c3ccccc3)Oc3ccccc32)cc1` (configuration not stated), the EC50 is listed as > 120 µM (not active). In the case of `Nc1cc(O)nc(SCCSc2ccccc2F)n1`, the half-maximal effective concentration (EC50) is 22.3 µM (active). Still for that read-out and setting: the same measure for `COCCCNc1nc(N)c([N+](=O)[O-])c(Nc2cc(OC)ccc2OC)n1`: 13.5 µM (active); for `CCCCCC(=O)Nc1ccccc1N1CCOCC1`: > 120 µM (not active).

System in another test: not listed separately
Put plainly: Luminescence Cell-Based Dose Response HTS to Identify Activators of Luciferase Translation or Activity in H4 […] Cells. [Related pubchem assays: 1829 (Project Summary), 1814 (Primary HTS)]. The test is classed as functional.
Conditions: not given
Regarding `O=C(Nc1nnc(C2CC2)s1)C1Cc2ccccc2CN1S(=O)(=O)c1ccccc1F` (configuration not stated), the EC50 was 123 nM (active).

For `CCOc1ccc2c(c1)s/c(=N/C(=O)C1CC1)n2C`, the EC50 is 508 nM (active).

System in a further test: not listed separately
The experiment in a line: alpha-synuclein stem-loop luciferase translation blockers – H4 neuroglioma cells, luminescence, confirmation (AID 1988). The format is functional, cell-based.
Conditions: not given
On to `O=C(/C=C\Nc1ccc(S(=O)(=O)Nc2ncccn2)cc1)c1cccc2ccccc12`, for which the EC50 is recorded as > 120 µM (not active). The same measure, in the same setting: the same measure for `Cc1ccc(C(=O)N2C(=O)C(c3ccccc3)Oc3ccccc32)cc1` (configuration not stated): > 120 µM (not active). Take `Nc1cc(O)nc(SCCSc2ccccc2F)n1`: the EC50 is 1.29 µM (active). Same read-out and setting: for `COCCCNc1nc(N)c([N+](=O)[O-])c(Nc2cc(OC)ccc2OC)n1` the value was 17.8 µM (active); for `CCCCCC(=O)Nc1ccccc1N1CCOCC1`, > 120 µM (not active).

Another test deals with Cytochrome P450 2C9 (Homo sapiens, UniProt P11712).
Sequence of Cytochrome P450 2C9 (P11712 whole entry): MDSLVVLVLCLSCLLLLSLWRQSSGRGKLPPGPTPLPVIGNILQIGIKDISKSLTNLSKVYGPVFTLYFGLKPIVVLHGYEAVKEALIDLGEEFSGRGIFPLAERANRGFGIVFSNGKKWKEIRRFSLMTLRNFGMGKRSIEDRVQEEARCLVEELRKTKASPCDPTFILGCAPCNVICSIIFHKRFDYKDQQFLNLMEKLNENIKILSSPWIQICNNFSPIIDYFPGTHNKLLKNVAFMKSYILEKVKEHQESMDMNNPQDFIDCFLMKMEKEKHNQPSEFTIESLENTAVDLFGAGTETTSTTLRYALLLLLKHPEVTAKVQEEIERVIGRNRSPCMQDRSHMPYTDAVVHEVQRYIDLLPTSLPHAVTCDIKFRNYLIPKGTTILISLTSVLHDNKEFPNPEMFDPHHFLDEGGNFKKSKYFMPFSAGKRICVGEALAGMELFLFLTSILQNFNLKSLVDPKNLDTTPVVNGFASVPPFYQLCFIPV
Conditions: not given
As for `CCNc1nnc(-c2ccncc2)s1`, the concentration at half-maximal activity (AC50) (in general, the concentration giving half of the maximal activity seen) is 17.8 µM (inconclusive).

System in a further test: not listed separately
Put plainly: luciferase reporter signal suppression in cells – H4 neuroglioma cells, luminescence, dose response (AID 1990). The test is classed as functional, cell-based.
Conditions: not given
(In general: A reporter such as luciferase makes a cellular process visible.)
With `O=C(/C=C\Nc1ccc(S(=O)(=O)Nc2ncccn2)cc1)c1cccc2ccccc12`, the EC50 is 18.3 µM (active). `Cc1ccc(C(=O)N2C(=O)C(c3ccccc3)Oc3ccccc32)cc1` (configuration not stated): the EC50 was > 120 µM (not active). On the same count and under the same terms, for `Nc1cc(O)nc(SCCSc2ccccc2F)n1` the value was < 0.1 µM (active); for `COCCCNc1nc(N)c([N+](=O)[O-])c(Nc2cc(OC)ccc2OC)n1`, 17.4 µM (active). The same measure, in the same setting: the same measure for `CCCCCC(=O)Nc1ccccc1N1CCOCC1`: > 120 µM (not active).

The next test deals with Cytochrome P450 3A4 (Homo sapiens, UniProt P08684).
Sequence of Cytochrome P450 3A4 (P08684 whole entry): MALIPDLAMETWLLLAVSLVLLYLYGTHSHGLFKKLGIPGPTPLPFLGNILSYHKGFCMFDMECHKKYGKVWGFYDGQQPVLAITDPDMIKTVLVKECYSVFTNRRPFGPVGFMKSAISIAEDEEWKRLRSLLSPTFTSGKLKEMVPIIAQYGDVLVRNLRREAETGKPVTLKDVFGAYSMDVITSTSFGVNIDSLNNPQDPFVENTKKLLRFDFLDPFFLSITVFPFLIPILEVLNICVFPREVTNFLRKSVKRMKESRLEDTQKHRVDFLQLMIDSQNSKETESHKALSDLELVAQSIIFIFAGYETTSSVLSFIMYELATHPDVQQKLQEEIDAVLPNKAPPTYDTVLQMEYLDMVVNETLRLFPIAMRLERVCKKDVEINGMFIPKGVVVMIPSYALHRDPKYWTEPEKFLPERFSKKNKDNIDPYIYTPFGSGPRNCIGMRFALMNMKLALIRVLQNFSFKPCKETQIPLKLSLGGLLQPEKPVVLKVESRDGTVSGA
Conditions: not given
In the case of `CCN(c1ccccc1)S(=O)(=O)c1ccc(NC(=S)NC(=O)c2cccs2)cc1`, the AC50 was 2.24 µM (inconclusive). Same read-out and setting: for `c1ccc(CSc2nnc3c4ccccc4c4ccccc4c3n2)cc1` the value was 3.98 µM (inconclusive); for `Cc1cccc(C(=O)N2CCN(c3ccc([N+](=O)[O-])c(NCc4ccco4)c3)CC2)c1`, 28.2 µM (inconclusive).

As to `O=C(Oc1ccccc1)N1CCC2(CCCN(c3cccc(-c4ccccc4)c3)C2)CC1`, the AC50 was 15.8 µM (inconclusive). With `CCc1nc(N2CCC3(CC2)OCCO3)c2nnn(Cc3ccccc3Cl)c2n1`, the AC50 was 15.8 µM (inconclusive).

For `CCN(CC)CCCCCCCCOC(=O)c1cc(OC)c(OC)c(OC)c1`, the AC50 was 10 µM (inconclusive).

A further test deals with T1, Cytochrome P450 1A2 (Homo sapiens, UniProt P05177).
T1 sequence (P05177 whole entry): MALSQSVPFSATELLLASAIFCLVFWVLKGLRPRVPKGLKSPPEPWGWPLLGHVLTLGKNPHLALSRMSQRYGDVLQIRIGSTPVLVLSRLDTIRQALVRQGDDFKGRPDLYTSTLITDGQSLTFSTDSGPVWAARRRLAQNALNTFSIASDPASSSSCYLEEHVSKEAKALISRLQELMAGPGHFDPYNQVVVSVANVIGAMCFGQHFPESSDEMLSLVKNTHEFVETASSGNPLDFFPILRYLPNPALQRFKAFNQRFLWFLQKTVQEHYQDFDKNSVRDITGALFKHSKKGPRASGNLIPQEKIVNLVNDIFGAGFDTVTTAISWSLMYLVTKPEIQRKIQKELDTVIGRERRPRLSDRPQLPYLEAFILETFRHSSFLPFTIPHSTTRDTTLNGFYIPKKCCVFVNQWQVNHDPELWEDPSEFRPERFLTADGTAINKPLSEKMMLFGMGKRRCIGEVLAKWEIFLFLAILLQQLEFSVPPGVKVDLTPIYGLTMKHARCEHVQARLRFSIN
Conditions: not given
Take `CCNc1nnc(-c2ccncc2)s1`: the AC50 was 15.8 µM (inconclusive). For `O=c1oc2c(Cl)cc(Cl)cc2cc1-c1nnc(Nc2ccccc2F)s1`, the AC50 was 15.8 µM (inconclusive). The same measure, in the same setting: the same measure for `COc1ccccc1C(c1nnnn1C(C)(C)C)N1CCN(Cc2ccncc2)CC1` (configuration not stated): 25.1 µM (inconclusive); for `CCNc1ncc2nc(-c3ccc(F)cc3)c(=O)n(-c3ccccc3)c2n1`: 0.398 µM (inconclusive); for `COc1ccc(-n2cnc3sc(-c4ccccc4)cc3c2=O)cc1`: 3.55 µM (inconclusive). Take `COC(=O)c1cc(Br)c(=O)n(CCc2ccc(O)cc2)c1`: the AC50 was 10 µM (inconclusive).
